Several values for one entry are separate records, joined by “and”; a condition that tells them apart may be missing. Identical values can stand only once.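 96-well plates; 48 h exposure; 5 concentrations. Endpoints by linear interpolation between flanking doses. Not reached: highest tested concentration assigned. Here, GI50 denotes the concentration required for 50% inhibition of growth. TGI marks complete inhibition of growth.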
What was measured:
Assay in all cases: NCI anticancer screen, dose series, 48 h
HOP-62 NSCLC = test system: HOP-62 NSCLC
M14 melanoma = test system: M14 melanoma
NCI-H460 lung = test system: NCI-H460 lung
OVCAR-3 ovarian = test system: OVCAR-3 ovarian
OVCAR-8 ovarian = test system: OVCAR-8 ovarian
RPMI-8226 leukemia = test system: RPMI-8226 leukemia
SNB-75 CNS = test system: SNB-75 CNS
SW-620 colon = test system: SW-620 colon
TK-10 renal = test system: TK-10 renal
SK-MEL-5 melanoma = test system: SK-MEL-5 melanoma

SMILES | TGI (HOP-62 NSCLC) | GI50 (M14 melanoma) | TGI (M14 melanoma) | GI50 (NCI-H460 lung) [µM] | TGI (NCI-H460 lung) | TGI (OVCAR-3 ovarian) | GI50 (OVCAR-8 ovarian) [µM] | TGI (OVCAR-8 ovarian) | GI50 (RPMI-8226 leukemia) | GI50 (SNB-75 CNS) | TGI (SNB-75 CNS) | GI50 (SW-620 colon) [µM] | TGI (SW-620 colon) | GI50 (TK-10 renal) [µM] | TGI (TK-10 renal) | TGI (RPMI-8226 leukemia) [µM] | TGI (SK-MEL-5 melanoma) [µM] | GI50 (HOP-62 NSCLC) [µM] | GI50 (OVCAR-3 ovarian) [µM] | GI50 (SK-MEL-5 melanoma) [µM]
CCN(CC)CCNc1ccc(CO)c2sc3ccccc3c(=O)c12 | 26 µM [middle of 4 runs] | 1.99 µM and 12.4 µM and 2.03 µM | 4.2 µM and 25.1 µM and 4.3 µM | 3.44 | 11 µM and 15.1 µM and 12.2 µM | 20 µM [middle of 4 runs] | 2.42 | 14 µM and 17.8 µM | 2.51 µM and 1.59 µM | 4.27 µM and 14.4 µM and 2.33 µM | 17.7 µM and 29.1 µM and 9.2 µM | 4.69 | 17.4 µM [middle of 4 runs] | 2.96 | 11.4 µM and 24.9 µM | – | – | – | – | –
CN1NC(c2ccccc2)=C(C#N)C(=O)CC1c1ccccc1Cl (centres undefined) | 94.1 µM | – | > 100 µM | – | > 100 µM | – | – | – | – | – | > 100 µM | – | > 100 µM | – | > 100 µM | > 100 | > 100 | – | – | –
O=c1c2ccccc2c(C=NCCNCCO)c2oc3ccccc3n12 | 25.6 µM | 15.6 µM | 29.5 µM | 2.9 | 11 µM | 24 µM | 4.88 | 19.7 µM | 7.67 µM | – | – | 4.63 | 17 µM | 2.73 | 9.61 µM | 31.6 | 20.1 | 13 | 11.7 | 7.16
CC[O+]=c1cccc2ssnc1-2 | > 100 µM | – | > 100 µM | – | > 100 µM | 99.8 µM | – | > 100 µM | – | – | 72.5 µM | – | > 100 µM | – | > 100 µM | – | > 100 | – | – | –
CC(=O)OC1C(O)COC(Oc2c(C)c3c4c(c2O)[C@@H](C)CC[C@@H]4[C@@H](C)C[C@H]3C=C(C)C)C1O (some centres undefined) | 32.5 µM | 14.6 µM | 31.5 µM | 16.3 | 47.1 µM | 28.2 µM | 23 | 49.8 µM | 13.3 µM | – | – | – | – | 14.7 | 29 µM | 33.2 | 32.4 | 15.4 | 13.5 | 15.3
NC(N)=NS(=O)(=O)c1ccc(NC(=O)c2ccc(Cl)c3c(Nc4ccc(S(=O)(=O)N=C(N)N)cc4)c4ccccc4nc23)cc1 | > 100 µM | – | > 100 µM | – | > 100 µM | > 100 µM | – | > 100 µM | – | – | 98.5 µM | – | > 100 µM | – | – | > 100 | – | – | – | –
N#CC(C(=N/NC(N)=S)/C(=N\NC(N)=S)C(C#N)c1ccccc1)c1ccccc1 (centres undefined) | > 10 µM | – | > 10 µM | – | > 10 µM | > 10 µM | – | > 10 µM | – | – | > 10 µM | – | > 10 µM | – | > 10 µM | > 10 | – | – | – | –
c1ccc(CN2CCC3(CC2)ONC2=NCCN23)cc1 | > 100 µM | > 100 µM | > 100 µM | 86.5 | > 100 µM | 87.3 µM | 60.9 | > 100 µM | – | > 100 µM | > 100 µM | 75 | > 100 µM | 72 | > 100 µM | – | > 100 | > 100 | 19.5 | 72
CC(=O)c1ccc(NCn2nc(-c3ccccc3O)oc2=S)cc1 | > 100 µM | > 100 µM | > 100 µM | 39.5 | > 100 µM | > 100 µM | > 100 | > 100 µM | – | – | – | 29.8 | > 100 µM | 67.1 | > 100 µM | – | > 100 | > 100 | > 100 | 55.6
CC1=C(CC/C(C)=C/CCC2(C)CCC([C@H](C)C(=O)O)OO2)C(C)(C)CCC1 (some centres undefined) (tested in a mixture with another compound) | > 100 µM | – | > 100 µM | – | > 100 µM | > 100 µM | – | > 100 µM | – | – | > 100 µM | – | > 100 µM | – | > 100 µM | – | – | – | – | –
C=CC1(C)/C(=N\O)C(C)(CC)C(=O)N1O (centres undefined) | > 100 µM | – | > 100 µM | – | > 100 µM | > 100 µM | – | > 100 µM | – | – | > 100 µM | – | > 100 µM | – | > 100 µM | – | > 100 | – | – | –
CC(=O)C1C(=O)C(=O)N(c2ccc(Cl)cc2C)C1=O (centres undefined) | > 100 µM | – | > 100 µM | – | > 100 µM | – | – | > 100 µM | – | – | – | – | > 100 µM | – | > 100 µM | – | > 100 | – | – | –
COc1ccc2c3c([nH]c2c1[N+](=O)[O-])C(C)N(C(=O)/C=C/c1ccccc1)CC3 (centres undefined) | 70.4 µM | – | > 100 µM | – | > 100 µM | > 100 µM | – | > 100 µM | – | – | – | – | > 100 µM | – | > 100 µM | 9.66 | – | – | – | –
